What was measured:
[1] = test system: S. aureus RN4220Bi^R; assay: MIC against biphenomycin-resistant S. aureus RN4220Bi^R; type: cell-based, Staphylococcus aureus; details: colony grown on the antibiotic-containing plate
Procedure: The S. aureus Strain RN4220BiR^R is isolated in vitro. For this purpose, 100 μl portions of an S. aureus RN4220 cell suspension (about 1.2×10^8 cfu/ml) are plated out on an antibiotic-free agar plate (18.5 mM Na2HPO4, 5.7 mM KH2PO4, 9.3 mM NH4Cl, 2.8 mM MgSO4, 17.1 mM NaCl, 0.033 μg/ml thiamine hydrochloride, 1.2 μg/ml nicotinic acid, 0.003 μg/ml biotin, 1% glucose, 25 μg/ml of each proteinogenic amino acid with the addition of 0.4% BH broth and 1% agarose) and on an agar plate containing 2 μg/ml biphenomycin B (10×MIC), and incubated at 37° C. overnight. Whereas about 1×10^7 cells grow on the antibiotic-free plate, about 100 colonies grow on the antibiotic-containing plate, corresponding to a resistance rate of 1×10^−5. Some of the colonies grown on the antibiotic-containing plate are tested for the biphenomycin B MIC. One colony with an MIC of >50 μM is selected for further use, and the strain is referred to as RN4220Bi^R.

[2] = test system: S. aureus 133; assay: Minimum inhibitory concentration (MIC), S. aureus 133; type: cell-based, Staphylococcus aureus; details: S. aureus 133
Procedure: The minimum inhibitory concentration (MIC) is the minimum concentration of an antibiotic with which the growth of a test microbe is inhibited over 18-24 h. The inhibitor concentration can in these cases be determined by standard microbiological methods (see, for example, The National Committee for Clinical Laboratory Standards. Methods for dilution antimicrobial susceptibility tests for bacteria that grow aerobically; approved standard-fifth edition. NCCLS document M7-A5 [ISBN 1-56238-394-9]. NCCLS, 940 West Valley Road, Suite 1400, Wayne, Pa. 19087-1898 USA, 2000). The test substances are thereby initially provided in 1:2 dilution series into 96-well round-bottom microtiter plates (Greiner) double-concentrated in 50 μl of test medium. The aerobically growing test microbes (e.g. staphylococci and enterococci), which are incubated overnight on Columbia blood agar plates (Becton-Dickinson), are, after resuspension in 0.9% NaCl, adjusted to a microbe count of about 5×10^7 microbes/ml and then diluted 1:150 in cation-adjusted MH medium (test medium). 50 μL of this suspension are pipetted onto the test preparations provided in the microtiter plates. The cultures are incubated at 37° C. for 18-24 hours. For microaerophilically growing microbes (e.g. streptococci), 2% lysed horse blood in the final concentration is added to the medium and the cultures are incubated in the presence of 5% CO2. The lowest substance concentration in each case at which no visible bacterial growth occurs any longer is defined as the MIC and is reported in μg/ml.
The minimum inhibitory concentration (MIC) is the minimum concentration of an antibiotic with which the growth of a test microbe is inhibited over 18-24 h. The inhibitor concentration can in these cases be determined by standard microbiological methods (see, for example, The National Committee for Clinical Laboratory Standards. Methods for dilution antimicrobial susceptibility tests for bacteria that grow aerobically; approved standard-fifth edition. NCCLS document M7-A5 [ISBN 1-56238-394-9]. NCCLS, 940 West Valley Road, Suite 1400, Wayne, Pa. 19087-1898 USA, 2000). The MIC of the compounds of the invention is determined in the liquid dilution test on the 96-well microtiter plate scale. The bacterial microbes are cultivated in a minimal medium (18.5 mM Na2HPO4, 5.7 mM KH2PO4, 9.3 mM NH4Cl, 2.8 mM MgSO4, 17.1 mM NaCl, 0.033 μg/ml thiamine hydrochloride, 1.2 μg/ml nicotinic acid, 0.003 μg/ml biotin, 1% glucose, 25 μg/ml of each proteinogenic amino acid with the exception of phenylalanine; [H.-P. Kroll; unpublished]) with the addition of 0.4% BH broth (test medium). In the case of Enterococcus faecium L4001, heat-inactivated fetal calf serum (FCS; GibcoBRL, Germany) is added to the test medium in a final concentration of 10%. Overnight cultures of the test microbes are diluted to an OD578 of 0.001 (to 0.01 in the case of enterococci) in fresh test medium, and incubated 1:1 with dilutions of the test substances (1:2 dilution steps) in test medium ([…]). The cultures are incubated at 37° C. for 18-24 hours; enterococci in the presence of 5% CO2.
The lowest substance concentration in each case at which no visible bacterial growth occurs any longer is defined as the MIC.
The minimum inhibitory concentration (MIC) is the minimum concentration of an antibiotic with which the growth of a test microbe is inhibited over 18-24 h. The inhibitor concentration can in these cases be determined by standard microbiological methods with modified medium in an agar dilution test (see, for example, The National Committee for Clinical Laboratory Standards. Methods for dilution antimicrobial susceptibility tests for bacteria that grow aerobically; approved standard-fifth edition. NCCLS document M7-A5 [ISBN 1-56238-394-9]. NCCLS, 940 West Valley Road, Suite 1400, Wayne, Pa. 19087-1898 USA, 2000). The bacterial microbes are cultivated on 1.5% agar plates which contain 20% defibrinated horse blood. […]

NC[C@H](O)C[C@@H]1NC(=O)[C@@H](N)Cc2cc(ccc2O)-c2ccc(O)c(c2)C[C@@H](C(=O)O)NC1=O [Biphenomycin B, biphenomycin B, reference compound]
MIC of selected colony (strain RN4220Bi^R) [1]: > 50 µM | MIC S. aureus 133 [2]: <0.03 μ/ml

Reference: US20080275018A1, “ANTIBACTERIAL AMIDE-MACROCYCLES V” (AiCuris GmbH & Co. KG, priority 2005, published 2008)
